Key:
C. violaceum CV026 = assay: Preliminary screening of bacterial quorum sensing agonistic / inhibitory activity on LB plate (purple stain / white circle); format: cell-based; settings: for Regulatory activity (bacterial quorum sensing regulatory activity): 1 μl of 0.065M compound spotted on plate, inhibitory screen with inducer C6-HSL, 30° C., 16-18 h; for Effect on bacterial quorum sensing (summary in words): summary of the activity evaluation experiments
Method: 1.1 Preparation work: different compounds to be tested (Compounds 1-40 prepared in Example 1-40) were weighted and then were dissolved in 200 μl DMSO (dimethyl sulfoxide) to prepare a solution at a concentration of 0.065M. 5.0 mg inducer, N-hexanoyl homoserine lactone (C6-HSL, purchased from Sigma Company), was weighted and was dissolved in 200 μl DMSO (at a concentration of 0.125M), and the compounds and the inducer were stored at 4 for further use. C. violaceum CV026 (donated by Professor McLean J C from Texas State University) in LB culture medium (LB culture medium consisting of 1% (percentage by mass) tryptone, 0.5% (percentage by mass) yeast extract, 1% (percentage by mass) NaCl and water) was cultured under shaking in a shaker at 30, 200 rpm to get the culture medium for further use.
1.2 Method for preliminary screening of compounds having agonistic activity: 400 μl C. violaceum CV026 (at a bacterial concentration of 1×10^8/ml) was added to 5 ml melted semi-solid LB culture medium, and was mixed well; the mixed culture medium was poured into a solid LB plate; when the mixed culture medium was solidified on the plate, lattice was made thereon; 1 μl of the dissolved compounds to be tested (Compounds 1-40 in Examples 1-40, at a concentration of 0.065M) was spotted on the plate; when the compounds on the plate was dried in air, the plate was put in a 30° C. oven upside down and was cultured for a period of 16-18 h. If the compound to be tested has an agonistic effect on C. violaceum CV026 on the LB plate, purple stain will be induced on the LB plate. The agonistic activity of a compound is determined depending on whether purple stain is induced for C. violaceum CV026 on LB plate as well as the purple depth.
1.3 Method for preliminary screening of compounds having inhibitory activity: the inducer C6-HSL was diluted gradiently to 1000 times by means of 2-fold dilution; 15 μl diluted inducer and 400 μl C. violaceum CV026 in exponential phase (at a bacterial concentration of 1×10^8/ml) were mixed well and then were added to a 5 ml melted semi-solid LB culture medium; the mixture of inducer, C. violaceum, and semi-solid LB was poured onto a solid LB plate; when the mixture was solidified on the plate, lattice was made thereon: 1 μl of the dissolved compounds to be tested (Compounds 1-40 in Examples 1-40, at a concentration of 0.065M) was spotted on the plate; when the compounds on the plate were dried in air, the plate was put in a 30° C. oven upside down and was cultured for a period of 16-18 h. If the compound to be tested has an inhibitory effect on C. violaceum CV026 on the LB plate, white circle will appear on the LB plate. The inhibitory activity of a compound is preliminary determined depending on the size of the white circle appeared after C. violaceum CV026 was inhibited on LB plate.
It is found after preliminary screening that 22 compounds according to the invention have bacterial quorum sensing regulatory activity, and the screening result was shown in Table 1.

SMILES: O=C(CCc1ccc([N+](=O)[O-])cc1)NN1CCOC1=O [Compound 36]
- Regulatory activity (bacterial quorum sensing regulatory activity) (C. violaceum CV026): +
- melting point: 143 to 145 °C

SMILES: O=C(Cc1ccc(Cl)cc1)NN1CCOC1=O [Compound 34, 2-(4-chlorophenyl)-N-(2-oxo-oxazolidin-3-yl)acetamide]
- Regulatory activity (bacterial quorum sensing regulatory activity) (C. violaceum CV026): +
- melting point: 124 to 127 °C

SMILES: O=C(CCc1ccc(Cl)cc1)NN1CCOC1=O [Compound 39]
- Regulatory activity (bacterial quorum sensing regulatory activity) (C. violaceum CV026): +
- melting point: 134 to 136 °C

SMILES: Cc1ccc(NC(=O)NN2CCOC2=O)cc1
- melting point: 205 to 207 °C

SMILES: CCCCCNC(=O)NN1CCOC1=O [Compound 16, 1-(2-oxo-oxazolidin-3-yl)-3-pentyl urea]
- melting point: 83 to 86 °C

SMILES: O=C(NCCc1ccccc1)NN1CCOC1=O [Compound 24, 1-(2-oxo-oxazolidin-3-yl)phenyl ethyl urea]
- melting point: 123 to 125 °C

SMILES: CCCCNC(=O)NN1CCOC1=O [Compound 15, 1-(2-oxo-oxazolidin-3-yl)-3-butyl urea]
- melting point: 98 to 100 °C

SMILES: O=C1OCCN1NC(=S)Nc1ccc(F)cc1 [Compound 28, 1-(4-fluorophenyl)-3-(2-oxo-oxazolidin-3-yl)sulfourea]
- melting point: 190 to 191 °C

SMILES: O=C(NN1CCOC1=O)c1ccc(F)cc1 [Compound 1, 4-fluoro-N-(2-oxo-oxazolidin-3-yl)benzamide]
- melting point: 189 to 192 °C

SMILES: O=C(NN1CCOC1=O)c1ccccc1F [Compound 6, 2-fluoro-N-(2-oxo-oxazolidin-3-yl)benzamide]
- melting point: 124 to 127 °C

SMILES: O=C(Cc1ccc(F)cc1)NN1CCOC1=O [Compound 31, 2-(4-fluorophenyl)-N-(2-oxo-oxazolidin-3-yl)acetamide]
- Regulatory activity (bacterial quorum sensing regulatory activity) (C. violaceum CV026): +
- melting point: 131 to 134 °C

SMILES: CCCCCCCCNC(=O)NN1CCOC1=O [Compound 19, 1-(2-oxo-oxazolidin-3-yl)-3-octyl urea]
- Regulatory activity (bacterial quorum sensing regulatory activity) (C. violaceum CV026): −
- Effect on bacterial quorum sensing (summary in words) (C. violaceum CV026): inhibitory effect on bacterial quorum sensing
- melting point: 64 to 65 °C

SMILES: CCCCCCNC(=O)NN1CCOC1=O [Compound 17, 1-(2-oxo-oxazolidin-3-yl)-3-hexyl urea]
- melting point: 74 to 75 °C

SMILES: O=C(NN1CCOC1=O)c1ccc(F)cc1 [Compound 9, 4-fluoro-N-(2-oxo-oxazolidin-3-yl)benzamide]
- Regulatory activity (bacterial quorum sensing regulatory activity) (C. violaceum CV026): +

SMILES: O=C(NC1CCCCC1)NN1CCOC1=O [Compound 22, 1-cyclohexyl-3-(2-oxo-oxazolidin-3-yl)urea]
- melting point: 203 to 205 °C

SMILES: O=C(Nc1ccc(OC(F)(F)F)cc1)NN1CCOC1=O
- melting point: 205 to 206 °C

SMILES: O=C(NN1CCOC1=O)c1cccc(F)c1
- melting point: 166 to 169 °C

SMILES: Cc1cccc(C(=O)NN2CCOC2=O)c1 [Compound 8, 3-methyl-N-(2-oxo-oxazolidin-3-yl)benzamide]
- Regulatory activity (bacterial quorum sensing regulatory activity) (C. violaceum CV026): +
- melting point: 148 to 150 °C

SMILES: O=C(NN1CCOC1=O)c1ccccc1C(F)(F)F [Compound 10, 2-trifluoromethyl-N-(2-oxo-oxazolidin-3-yl)benzamide]
- Regulatory activity (bacterial quorum sensing regulatory activity) (C. violaceum CV026): +
- melting point: 139 to 141 °C

SMILES: O=C(NCc1ccccc1)NN1CCOC1=O [Compound 23, 1-benzyl-3-(2-oxo-oxazolidin-3-yl)urea]
- melting point: 160 to 161 °C

SMILES: O=C(Cc1ccc([N+](=O)[O-])cc1)NN1CCOC1=O [Compound 33, 2-(4-nitrophenyl)-N-(2-oxo-oxazolidin-3-yl)acetamide]
- Regulatory activity (bacterial quorum sensing regulatory activity) (C. violaceum CV026): +
- melting point: 180 to 183 °C

SMILES: CCCCCCCNC(=O)NN1CCOC1=O [Compound 18, 1-(2-oxo-oxazolidin-3-yl)-3-heptyl urea]
- Regulatory activity (bacterial quorum sensing regulatory activity) (C. violaceum CV026): −
- Effect on bacterial quorum sensing (summary in words) (C. violaceum CV026): inhibitory effect on bacterial quorum sensing
- melting point: 68 to 69 °C

SMILES: Cc1ccc(CCC(=O)NN2CCOC2=O)cc1 [Compound 38]
- Regulatory activity (bacterial quorum sensing regulatory activity) (C. violaceum CV026): +
- melting point: 146 to 148 °C

SMILES: O=C(Nc1ccc(Br)cc1)NN1CCOC1=O [Compound 20, 1-(4-bromophenyl)-3-(2-oxo-oxazolidin-3-yl)urea]
- melting point: 212 to 215 °C

SMILES: O=C(Nc1cccc(Br)c1)NN1CCOC1=O
- melting point: 197 to 199 °C

SMILES: O=C(CCCc1ccccc1)NN1CCOC1=O [Compound 40, N-(2-oxo-oxazolidin-3-yl)-4-phenyl butanamide]
- Regulatory activity (bacterial quorum sensing regulatory activity) (C. violaceum CV026): +
- melting point: 104 to 107 °C

SMILES: Cc1ccc(CC(=O)NN2CCOC2=O)cc1 [Compound 35, 2-(4-tolyl)-N-(2-oxo-oxazolidin-3-yl)acetamide]
- Regulatory activity (bacterial quorum sensing regulatory activity) (C. violaceum CV026): +
- melting point: 108 to 111 °C

SMILES: Cc1cccc(NC(=O)NN2CCOC2=O)c1
- melting point: 191 to 192 °C

SMILES: O=C(NN1CCOC1=O)c1ccc(CCl)cc1 [Compound 3, 4-chloromethyl-N-(2-oxo-oxazolidin-3-yl)benzamide]
- Regulatory activity (bacterial quorum sensing regulatory activity) (C. violaceum CV026): −
- Effect on bacterial quorum sensing (summary in words) (C. violaceum CV026): inhibitory effect on bacterial quorum sensing
- melting point: 206 to 208 °C

SMILES: O=C(CCc1ccccc1)NN1CCOC1=O [Compound 37]
- Regulatory activity (bacterial quorum sensing regulatory activity) (C. violaceum CV026): +

SMILES: O=C1OCCN1NC(=S)Nc1ccccc1 [Compound 27, 1-(2-oxo-oxazolidin-3-yl)phenylthiourea]
- melting point: 191 to 193 °C

SMILES: CC(C)(C)c1ccc(C(=O)NN2CCOC2=O)cc1 [Compound 2, 4-tert-butyl-N-(2-oxo-oxazolidin-3-yl)benzamide]
- Regulatory activity (bacterial quorum sensing regulatory activity) (C. violaceum CV026): −
- Effect on bacterial quorum sensing (summary in words) (C. violaceum CV026): inhibitory effect on bacterial quorum sensing
- melting point: 187 to 189 °C

SMILES: O=C(NN1CCOC1=O)c1cccc(Cl)c1 [Compound 5, 3-chloro-N-(2-oxo-oxazolidin-3-yl)benzamide]
- Regulatory activity (bacterial quorum sensing regulatory activity) (C. violaceum CV026): +
- melting point: 151 to 152 °C

SMILES: COc1ccc(CC(=O)NN2CCOC2=O)cc1 [Compound 32, 2-(4-methoxyphenyl)-N-(2-oxo-oxazolidin-3-yl)acetamide]
- Regulatory activity (bacterial quorum sensing regulatory activity) (C. violaceum CV026): +
- melting point: 90 to 92 °C

SMILES: O=C(NN1CCOC1=O)c1ccccc1Cl [Compound 4, 2-chloro-N-(2-oxo-oxazolidin-3-yl)benzamide]
- Regulatory activity (bacterial quorum sensing regulatory activity) (C. violaceum CV026): ±
- Effect on bacterial quorum sensing (summary in words) (C. violaceum CV026): both an agonizing effect and an inhibitory effect
- melting point: 166 to 168 °C

— patent US9914711B2 (priority 2013, dated 2018)
